Reference: publication PMC10893357 (Viruses, 2024)
“Also recorded” adds a separate entry of the source.

What follows are molecules tested against T1, SARS-CoV-2 3CL^pro (Severe acute respiratory syndrome coronavirus 2, UniProt P0DTD1) (assay: SARS-CoV-2 3CLpro enzymatic inhibition assay (FRET peptide substrate)). Conditions: not given.
Assay type: biochemical

SMILES	IC50 [µM]	activity against 3CLpro (in words)
CC(=O)C1=C(O)C=C2Oc3c(C(C)=O)c(O)c(C)c(O)c3[C@@]2(C)C1=O [(+)-1, (R)-(+)-Usnic acid, reference compound]	> 200	does not inhibit 3CL^pro
CC(=O)C1=C(O)C=C2Oc3c(-c4csc(N/N=C/c5ccsc5)n4)c(O)c(C)c(O)c3[C@@]2(C)C1=O [(+)-3a]	51 ± 6.33	–
CC(=O)C1=C(O)C=C2Oc3c(-c4csc(N/N=C/c5cccs5)n4)c(O)c(C)c(O)c3[C@@]2(C)C1=O [(+)-3b]	49.7 ± 6.12	–
CC(=O)C1=C(O)C=C2Oc3c(-c4csc(N/N=C/c5sccc5C)n4)c(O)c(C)c(O)c3[C@@]2(C)C1=O [(+)-3c]	34 ± 4.45	–
CC(=O)C1=C(O)C=C2Oc3c(-c4csc(N/N=C/c5ccc(C)s5)n4)c(O)c(C)c(O)c3[C@@]2(C)C1=O [(+)-3d]	40.7 ± 5.11	moderately inhibited the protease
CC(=O)C1=C(O)C=C2Oc3c(-c4csc(N/N=C/c5ccc(Br)s5)n4)c(O)c(C)c(O)c3[C@@]2(C)C1=O [(+)-3e]	28.2 ± 1.41	the highest but not strong activity
CC(=O)C1=C(O)C=C2Oc3c(-c4csc(N/N=C/c5cc(Br)cs5)n4)c(O)c(C)c(O)c3[C@@]2(C)C1=O [(+)-3f]	50.2 ± 6.75	–
CC(=O)C1=C(O)C=C2Oc3c(-c4csc(N/N=C/c5ccc([N+](=O)[O-])s5)n4)c(O)c(C)c(O)c3[C@@]2(C)C1=O [(+)-3g]	> 200	showed no activity at all; also recorded: did not show this activity
CC(=O)C1=C(O)C=C2Oc3c(C(C)=O)c(O)c(C)c(O)c3[C@]2(C)C1=O [(−)-1, (S)-(−)-Usnic acid, reference compound]	> 200	–
CC(=O)C1=C(O)C=C2Oc3c(-c4csc(N/N=C/c5ccsc5)n4)c(O)c(C)c(O)c3[C@]2(C)C1=O [(−)-3a]	41.6 ± 4.97	–
CC(=O)C1=C(O)C=C2Oc3c(-c4csc(N/N=C/c5cccs5)n4)c(O)c(C)c(O)c3[C@]2(C)C1=O [(−)-3b]	40.4 ± 5.65	–
CC(=O)C1=C(O)C=C2Oc3c(-c4csc(N/N=C/c5sccc5C)n4)c(O)c(C)c(O)c3[C@]2(C)C1=O [(−)-3c]	48 ± 6.21	–
CC(=O)C1=C(O)C=C2Oc3c(-c4csc(N/N=C/c5ccc(C)s5)n4)c(O)c(C)c(O)c3[C@]2(C)C1=O [(−)-3d]	41 ± 5.89	moderately inhibited the protease
CC(=O)C1=C(O)C=C2Oc3c(-c4csc(N/N=C/c5ccc(Br)s5)n4)c(O)c(C)c(O)c3[C@]2(C)C1=O [(−)-3e]	85.8 ± 10.1	almost three times less effectively
CC(=O)C1=C(O)C=C2Oc3c(-c4csc(N/N=C/c5cc(Br)cs5)n4)c(O)c(C)c(O)c3[C@]2(C)C1=O [(−)-3f]	72.8 ± 9.55	–
CC(=O)C1=C(O)C=C2Oc3c(-c4csc(N/N=C/c5ccc([N+](=O)[O-])s5)n4)c(O)c(C)c(O)c3[C@]2(C)C1=O [(−)-3g]	> 200	showed no activity at all

The molecules below were run against T1, SARS-CoV-2 3CL^pro (assay: Kinetic parameters of 3CLpro reaction with inhibitor). Conditions: maximum reaction rate of 3CLpro with inhibitor at its IC50.
Assay type: biochemical

SMILES	Vmax [nM/s]
CC(=O)C1=C(O)C=C2Oc3c(-c4csc(N/N=C/c5ccc(Br)s5)n4)c(O)c(C)c(O)c3[C@@]2(C)C1=O [(+)-3e]	334.26 ± 39.08
